Data on two compounds can be found in patent US20230293495A1, “PHARMACEUTICAL FORMULATIONS FOR TREATING DISEASES MEDIATED BY KDM1A” (Imago Biosciences, Inc., priority 2020, published 2023).

In one series the target is KDM1A (Homo sapiens, UniProt O60341). Kind of series: Inhibition of KDM1A. The series is classed as biochemical.
Series [1] is described as follows: Excipient compatibility study: binary mixtures of Compound B and excipient in open vials, assay and related substances (RS). The series is classed as physicochemical. To be noted: for RS-1 (related substance): in %; for Total related substances: in % (unit assumed). As to the method: Commonly used excipients for oral solid dosage formulations were evaluated for this study including fillers, binders, disintegrants, glidants, lubricants and organic acid stabilizers.
Briefly, each excipient and API were individually weighed and filled in vials, followed by the addition of glass beads. The samples were closed, vortexed, and refrigerated at 2 to 8° C. prior to initiation of study as the sample preparation was executed over a period of 10 days. All vials were removed from the refrigerator and allowed to equilibrate to room temperature, then opened, and stored at the designated storage conditions at the same t=0.

With `CN1CCN(C(=O)[C@H](CCCN[C@@H]2C[C@H]2c2ccc(F)cc2)NC(=O)c2ccc(-n3ccnn3)cc2)CC1` [Compound A, N—((S)-5-((1R,2S)-2-(4-fluorophenyl)cyclopropylamino)-1-(4-methylpiperazin-1-yl)-1-oxopentan-2-yl)-4-(1H-1,2,3-triazol-1-yl)benzamide], the “Inhibition of KDM1A, in words” value on KDM1A is recorded as “has shown activity for the inhibition of KDM1A”.
Regarding `CN1CCN(C(=O)[C@H](CCCN[C@@H]2C[C@H]2c2ccc(F)cc2)NC(=O)c2ccc(-n3ccnn3)cc2)CC1.Cc1ccc(S(=O)(=O)O)cc1` [Compound B, N—((S)-5-((1R,2S)-2-(4-fluorophenyl)cyclopropylamino)-1-(4-methylpiperazin-1-yl)-1-oxopentan-2-yl)-4-(1H-1,2,3-triazol-1-yl)benzamide ditosylate], the “% LC (assay)” value in series [1] (1 week, 50° C./11% RH) is given as 98.824 % LC; in series [1] (1 week, 50° C./75% RH) it was 102.663 % LC; in series [1] (2 weeks, 50° C./11% RH), 100.211 % LC; in series [1] (2 weeks, 50° C./75% RH), 101.800 % LC; in series [1] (week 0), 102.973 % LC. Also, the “RS-1 (related substance)” value in series [1] (1 week, 50° C./11% RH) is 0.1652; in series [1] (1 week, 50° C./75% RH), 0.1453; in series [1] (2 weeks, 50° C./11% RH) it was 0.3516; in series [1] (2 weeks, 50° C./75% RH), 0.3545; in series [1] (week 0), 0.0935. Also, the Total related substances in series [1] (1 week, 50° C./11% RH) is on record as 0.2245; in series [1] (1 week, 50° C./75% RH), 0.2102; in series [1] (2 weeks, 50° C./11% RH), 0.4595; in series [1] (2 weeks, 50° C./75% RH), 0.4260; in series [1] (week 0), 0.1525. Also, the Related substance RRT 1.081 in series [1] (1 week, 50° C./75% RH) was 0.0649%; in series [1] (2 weeks, 50° C./75% RH), 0.0715%; in series [1] (week 0), 0.0589%. The “Inhibition of KDM1A, in words” value on KDM1A is “has shown activity for the inhibition of KDM1A”.
